Assay results as given in patent US20090017489A1, “Methods For Modulating The Development Of Dopamine Neuron By The Dopamine D2 Receptor And Compositions Thereof” (Korea University Industry And Academy Cooperation Foundation, priority 2006, published 2009).
“Also recorded” adds a separate entry of the source.

Legend:
[1] = system: TH-positive neurons in primary mesencephalic cultures from WT and D2R−/− mice; assay: MPP+ treatment of primary mesencephalic dopaminergic neuronal cultures, TH-positive cell counting; assay type: cell-based, mouse; conditions: for number of surviving TH-positive neurons: 10 μM MPP+, 24 hours
Text: (§1) D2R−/− mice and wild-type (WT) mice were obtained by mating D2R−/− mice and heterozygous mice, purchased from Institut de Genetiqul et Biologie Moleculaire et celluaire (Strasbourg, France), and their genotypes were identified by Southern hybridization analyses (An J J et al., Mol Cell Neurosci. 2004, 25: 732-741). Insemination was confirmed by vaginal plug and considered to be embryonic day 0 (E0). Pregnant mothers were killed at E14 in accordance with Society for Neuroscience Guidelines. To prepare primary mesencephalic neuronal cultures, the mesencephalon dissected from 14 day gestation mouse embryo was incubated with 0.1% of trypsin in HBSS for 10 minutes at 37° C. and triturated with a constricted Pasteur pipette in high-glucose DMEM media supplemented with 10% FBS (Invitrogen, San Diego, Calif.), 1.4 mM L-glutamine, and 6.0 g/L glucose. The neurons were plated at 1.0×10^5 cells per 18×18 mm coverslip (Marienfeld, Lauda-Konigshofen, Germany) or 2.0×10^5 cells per six-well plates precoated with 50 μg/ml poly-D-lysine and 2 μg/ml laminin (Sigma, St. Louis, Mo.). The neurons were maintained at 37° C. in a humidified 5% CO2 atmosphere in Neurobasal media supplemented with B27 and GlutaMax-1.
To determine whether the absence of dopamine D2 receptor (D2R) might affect the number of dopaminergic neurons, dopaminergic neurons, which were isolated from mesencephalons of wild-type (WT) and D2R−/− embryonic mice, were incubated on slides with 1.0×10^5 cells and precoated with 50 μg/ml poly-D-lysine and 2 μg/ml laminin (Sigma, St. Louis, Mo.) at 37° C. for 5 days, followed by performing immunofluorescence staining. […] Using a microscope equipped with an metamorph imaging system (Universal Imaging Corporation, West Chester, Pa.) in 20 randomly selected fields per each slide, cell counts and morphometric analysis were made in randomly selected unbiased counting frames (>40 frames out of 81 grids were counted). […]

[2] = system: D2R-mediated Nurr1 activation; assay: NurRE-dependent luciferase reporter gene activation assay in HEK293T cells transfected with D2R, Nurr1 and NurRE-luc; assay type: cell-based
Method: To investigate the effect of D2R on the number of TH-positive neurons and Nurr1 expression, Nur response element (NurRE)-dependent reporter gene activation assay was carried out to determine whether or not D2R activation might induce Nurr1 activation (Philips et al, Mol Cell Biol., 1997, 17:5946-5951; Maira et al, Mol Cell Biol., 1999, 19:7549-7557). HEK293T cells distributed from Korean cell line Bank were cultured in DMEM (Dulbeco's modified eagle's medium; Invitrogen, Carlsbad, Calif.) supplemented with 10% FBS (fetal bovine serum; Invitrogen, Carlsbad, Calif.) and transfected the same with dopamine receptors, Nurr1, and NurRE gene using a jetPEI transfection reagent (Qbiogene, Carlsbad, Calif.). In detail, 5˜7×10^5 cells confluent monolayers of HEK293 cells were transfected with 1.5 μg of pSV-D2R or pSV-D1R, 1.5 μg of pCMX-Nurr1, 1.5 μg of pXP1-luc containing POMC gene promoter and NurRE (pXP1-NurRE-luc), and 0.5 μg of pCH110. In case of the transfection with Ras dominant-negative mutant, cells were transfected with 1.0 μg of pMT-RasN17 or pSK-null vector, 1.0 μg of pSV-D2R, 1.0 μg of pCMX-Nurr1, 1.0 μg of pXP1-NurRE-luc, and 0.5 μg of pCH110. After 3 hours, the transfection mixture was replaced with fresh growth medium. Assays were performed 48 hours after transfection. Cells were preincubated overnight in serum-free growth medium before treatment with agonists. The cells were treated with various concentrations of dopamine or SKF38393, respectively, for 6 hours at 37° C. with or without preincubation of haloperidol (1 μM for 5 minutes), pertussis toxin (PTX) (100 ng/ml for 12 hours), H-89 (1 μM for 20 minutes), and PD98059 (10 μM for 30 minutes). After treatment, the cells were lysed and assayed for luciferase activity using the luciferase assay system (Promega, Madison, Wis.), and luminescence was measured using a 96-well luminometer (Microlumat; EG & Berthold, Bad Wilbad, Germany).
The data obtained were fitted to a sigmoid curve with a variable slope factor using nonlinear squares regression in GraphPad Prism software, which is shown in FIG. 5.

[3] = system: TH-positive dopaminergic neurons in mesencephalic cultures from WT and D2R−/− mice; assay: Number of TH-positive neurons and neurite length in primary mesencephalic cultures; assay type: cell-based, mouse
Text: as §1
To determine whether the absence of dopamine D2 receptor (D2R) might affect the number of dopaminergic neurons, dopaminergic neurons, which were isolated from mesencephalons of wild-type (WT) and D2R−/− embryonic mice, were incubated on slides with 1.0×10^5 cells and precoated with 50 μg/ml poly-D-lysine and 2 μg/ml laminin (Sigma, St. Louis, Mo.) at 37° C. for 5 days, followed by performing immunofluorescence staining. The immunofluorescence staining was performed such that primarily cultured dopaminergic neurons were fixed with 4% paraformaldehyde for 20 minutes at room temperature (RT) and blocked for 1 hour in PBS containing 5% normal horse serum and 0.2% Triton X-100. Then, the neurons were incubated with a rabbit polyclonal anti-tyrosine hydroxylase (TH) (1:1000; Pel-Freez, Rogers, Ark.) in PBS containing 1% normal horse serum and 0.2% Triton X-100 at 4° C. for over 16 hours, and followed by staining according to avidin-biotin immunohistochemical procedures (Vector Laboratories, Burlingame, Calif.). Using a microscope equipped with an metamorph imaging system (Universal Imaging Corporation, West Chester, Pa.) in 20 randomly selected fields per each slide, cell counts and morphometric analysis were made in randomly selected unbiased counting frames (>40 frames out of 81 grids were counted).
Thereafter, the treated cells were fixed and stained in the same manner as in EXAMPLE 2 for counting the number TH-positive cells and analyzing the neuritic shape (FIG. 6A).
Thereafter, the neurons were treated with 1 μM quinpirol.

[4] = system: phosphorylated ERK (p-ERK) in mesencephalic neurons from WT and D2R−/− mice; assay: ERK phosphorylation in mesencephalic neurons (immunofluorescence and Western blot); assay type: cell-based, mouse; conditions: Western blot
Method: Then, cells were fixed in the same manner as in EXAMPLE 2, a rabbit polyclonal anti-TH (1:1000; Pel-Freez) and a mouse monoclonal anti-phosphorylated ERK (p-ERK) (E10; 1:200; Cell Signaling, Beverly, Mass.) were reacted at 4° C. for 12 hours. Thereafter, the resultant neurons were stained at RT for 1 hour with two fluorescent antibodies, that is, Alexa Fluor 568 goat anti-rabbit IgG and Alexa Fluor 488 goat anti-mouse IgG (1:200; Molecular Probes, Eugene, Oreg.). After staining, ERK-positive neurons among TH-positive neurons were examined.
To observe immunofluorescent images, a confocal microscope system (Nikon Eclipse fluorescence microscope, TE2000-U, Nikon, Kanagawa, Japan; Ultraview RS confocal scanner, Perkin elmer, Wellesley, Mass.) or a fluorescence microscope (Axiovert 2000 microscope with epifluorescence unit, Zeiss, Zena, Germany) was used. The Western blot analysis was carried out in the following conditions. […] The resultant mixture was homogenized with probe type sonicator on ice, and followed by centrifugation at 13,000×g for 10 minutes at 4° C. Protein (50 μg), as measured by Bradford protein assay, was subjected to electrophoresis on 10% SDS-PAGE. […]

[5] = system: dopamine D1 receptor (D1R)-mediated Nurr1 activation; assay: NurRE-dependent luciferase reporter gene activation assay in HEK293T cells transfected with D1R; assay type: cell-based
Method: To investigate the effect of D2R on the number of TH-positive neurons and Nurr1 expression, Nur response element (NurRE)-dependent reporter gene activation assay was carried out to determine whether or not D2R activation might induce Nurr1 activation (Philips et al, Mol Cell Biol., 1997, 17:5946-5951; Maira et al, Mol Cell Biol., 1999, 19:7549-7557). HEK293T cells distributed from Korean cell line Bank were cultured in DMEM (Dulbeco's modified eagle's medium; Invitrogen, Carlsbad, Calif.) supplemented with 10% FBS (fetal bovine serum; Invitrogen, Carlsbad, Calif.) and transfected the same with dopamine receptors, Nurr1, and NurRE gene using a jetPEI transfection reagent (Qbiogene, Carlsbad, Calif.). In detail, 5˜7×10^5 cells confluent monolayers of HEK293 cells were transfected with 1.5 μg of pSV-D2R or pSV-D1R, 1.5 μg of pCMX-Nurr1, 1.5 μg of pXP1-luc containing POMC gene promoter and NurRE (pXP1-NurRE-luc), and 0.5 μg of pCH110. […] After treatment, the cells were lysed and assayed for luciferase activity using the luciferase assay system (Promega, Madison, Wis.), and luminescence was measured using a 96-well luminometer (Microlumat; EG & Berthold, Bad Wilbad, Germany).

[6] = PD98059 treatment versus control without PD98059
[7] = D2R−/− mice, 1 μM haloperidol for 5 minutes then 1 μM quinpirole, versus control without haloperidol
[8] = WT and D2R−/− mice treated with haloperidol

`C[n+]1ccc(-c2ccccc2)cc1` [MPP^+, 1-Methyl-4-phenylpyridinium] was tested, and the “loss of dopaminergic neurons” value ([1]; 1 to 10 μM MPP+ for 24 hours, D2R−/− versus WT cultures) was “more significant loss of dopaminergic neurons in the D2R−/− mice than in WT mice”, the “number of surviving TH-positive neurons” value ([1]; D2R−/− mice cultures) was 40% and the “number of surviving TH-positive neurons” value ([1]; WT mice cultures) was 54%.

`COc1cccc(-c2cc(=O)c3ccccc3o2)c1N` [PD98059] was tested, and the “Nurr1 activation by dopamine in the presence of MEK inhibitor” value ([2]; PD98059 10 μM for 30 minutes) was “noticeably reduced”, the “average length of neurites” value [3, 6] was “reduced” and the “number of TH-positive neurons” value [3, 6] was “slightly reduced”. The “phosphorylated ERK after quinpirole with MEK inhibitor” value ([4]; 50 μM PD98059 for 30 minutes plus quinpirole) was “neither WT nor D2R−/− neurons showed phosphorylated ERK”.

With `NCCc1ccc(O)c(O)c1` [dopamine] the “luciferase activation relative to control group” value ([2]; HEK293T transfected with D2R, Nurr1 and NurRE-luc, dopamine at various concentrations, 6 hours) was “about 180%” and the “change in luciferase activation” value ([2]; dopamine, in the absence of Nurr1 or D2R) was “no change in the activation”.

For `O=C(CCCN1CCC(O)(c2ccc(Cl)cc2)CC1)c1ccc(F)cc1` [haloperidol], the “D2R-mediated Nurr1 activation by dopamine after antagonist” value ([2]; haloperidol 1 μM preincubation for 5 minutes) was “reduced; also recorded: inhibited or decreased”, the neuritic extension [3, 7] was “no changes” and the “number of TH-positive neurons” value [3, 7] was “no changes”. The “average length of the neurites” value [3, 8] was “decreased or showed insignificant changes”, the “number of dopaminergic neurons” value [3, 8] was “decreased or showed insignificant changes” and the “phosphorylated ERK after quinpirole with antagonist” value ([4]; 1 μM haloperidol for 5 minutes plus quinpirole) was “neither WT nor D2R−/− neurons showed phosphorylated ERK”.

In the case of `O=S(=O)(NCCNC/C=C/c1ccc(Br)cc1)c1cccc2cnccc12` [H-89], the “D2R-induced NurRE-dependent luciferase activation in the presence of PKA inhibitor” value ([2]; H-89 1 μM for 20 minutes) is reported as “did not give rise to a significant change”.

`Oc1cc2c(c(Cl)c1O)CCNCC2c1ccccc1` (centres unmarked) [SKF81297] was tested, and the “Nurr1 activation by D1R-specific agonist” value [5] was “no significant change”.
